Laboratory results as given in ChEMBL document CHEMBL1131953, “Synthesis of a tetrasubstituted bicyclo [2.2.2] octane as a potential inhibitor of influenza virus sialidase” (Bioorg Med Chem Lett, 1999).

Legend:
Influenza B virus [1] = experiment: Inhibitory activity against sialidase of influenza B at a concentration of 660 uM; type: functional
Influenza B virus [2] = experiment: Inhibitory activity against sialidase of influenza B; type: functional, organism-based
Influenza A virus = experiment: Inhibitory activity against sialidase of influenza A; type: functional, organism-based

| Structure (SMILES) | inhibition at 660 µM (Influenza B virus [1]) [%] | IC50 (Influenza B virus [2]) [µM] | IC50 (Influenza A virus) [µM] |
| --- | --- | --- | --- |
| CCCO[C@@H]1CC2(C(=O)O)CC[C@@]1(NC(C)=O)[C@@H](O)C2 (single isomer, unassigned) | 12 | 660 | 660 |
| CCCO[C@@H]1C=C(C(=O)O)C[C@H](N)[C@H]1NC(C)=O | – | – | 0.13 |
